How the values were obtained:
SMYD3 [1] = biological target: T1, SMYD3 (Homo sapiens (Human), UniProt Q9H7B4); experiment: SMYD3 biochemical assay (SPA, 3H-SAM methylation of MEKK2 protein substrate); settings: read-out: SMYD3 Biochem IC50 (μM)*
Method in brief: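 Tritium incorporation into GST-MEKK2 is counted by scintillation proximity after citric acid bead capture. Native human SMYD3 is preincubated with test compound for 30 min at room temperature at pH 8.0 (Tris-Cl, TCEP, BSG, Tween 20) before 3H-SAM and substrate are added; cold SAM at 100 uM final stops turnover.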

SMYD3 [2] = biological target: T1, SMYD3; experiment: SMYD3 cell assay (Trimethyl-MEKK2 In-Cell Western in 293T/17 cells); format: cell-based; settings: 293T/17 cells; read-out: SMYD3 Cell IC50 (μM)*
Method in brief: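 In-Cell Western ratio of trimethyl-Lys260 MEKK2 to anti-flag signal; percent inhibition from DMSO and maximum-inhibition controls, IC50 by non-linear regression, triplicates.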

T1 sequence (Q9H7B4 whole entry): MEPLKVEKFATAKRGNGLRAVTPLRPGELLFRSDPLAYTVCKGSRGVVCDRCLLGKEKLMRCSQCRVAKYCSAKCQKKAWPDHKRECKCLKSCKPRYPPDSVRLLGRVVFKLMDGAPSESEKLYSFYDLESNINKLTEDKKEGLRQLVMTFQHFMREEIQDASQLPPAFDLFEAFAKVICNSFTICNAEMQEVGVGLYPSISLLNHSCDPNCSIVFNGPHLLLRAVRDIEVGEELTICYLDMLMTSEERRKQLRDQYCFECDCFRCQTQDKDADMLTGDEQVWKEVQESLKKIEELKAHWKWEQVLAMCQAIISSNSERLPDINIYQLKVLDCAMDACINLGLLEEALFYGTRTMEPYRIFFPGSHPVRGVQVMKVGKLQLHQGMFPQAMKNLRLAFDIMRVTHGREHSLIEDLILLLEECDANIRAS

| IC50 (SMYD3 [1]) [µM] | IC50 (SMYD3 [2]) [µM] | SMILES |
| --- | --- | --- |
| 0.961 | 13 | C[C@H]1C[C@@H](NC(=O)c2cc(C3CC3)on2)CCN1C(=O)CC(C)(C)CN [compound 337, N-((2S,4S)-1-(4-amino-3,3-dimethylbutanoyl)-2-methylpiperidin-4-yl)-5-cyclopropylisoxazole-3-carboxamide] |
| > 10 | > 40 | C[C@H]1C[C@@H](NC(=O)c2cc(C3CC3)on2)CCN1C(=O)c1ccc2[nH]cnc2c1 [compound 340, N-((2S,4S)-1-(1H-benzo[d]imidazole-5-carbonyl)-2-methylpiperidin-4-yl)-5-cyclopropylisoxazole-3-carboxamide] |
| 1 | 6.01 | C[C@@H]1C[C@H](NC(=O)c2cc(C3CC3)on2)CCN1C(=O)c1ccc2[nH]cnc2c1 [compound 341, N-((2R,4R)-1-(1H-benzo[d]imidazole-5-carbonyl)-2-methylpiperidin-4-yl)-5-cyclopropylisoxazole-3-carboxamide] |
| 2.27 | > 40 | O=C(N[C@@H]1CCN(C(=O)CC2CCNCC2)[C@H](Cc2ccccc2)C1)c1cc(C2CC2)on1 [compound 349, N-((2R,4R)-2-benzyl-1-(2-(piperidin-4-yl)acetyl)piperidin-4-yl)-5-cyclopropylisoxazole-3-carboxamide] |
| 3.09 | 7.83 | C[C@@H]1C[C@H](NC(=O)c2cc(C3CC3)on2)CCN1S(=O)(=O)c1ccccc1 [compound 351, 5-cyclopropyl-N-((2R,4R)-2-methyl-1-(phenylsulfonyl)piperidin-4-yl)isoxazole-3-carboxamide] |
| 0.152 | 0.996 | C[C@H]1C[C@@H](NC(=O)c2cc(C3CC3)on2)CCN1S(=O)(=O)c1ccccc1 [compound 352, 5-cyclopropyl-N-((2S,4S)-2-methyl-1-(phenylsulfonyl)piperidin-4-yl)isoxazole-3-carboxamide] |
| 1.14 | 5.65 | C[C@@H]1C[C@H](NC(=O)c2cc(C3CC3)on2)CCN1S(=O)(=O)c1cccc(C#N)c1 [compound 354, N-((2R,4R)-1-((3-cyanophenyl)sulfonyl)-2-methylpiperidin-4-yl)-5-cyclopropylisoxazole-3-carboxamide] |
| 0.792 | 8.28 | C[C@H](C(=O)N1CC[C@H](NC(=O)c2cc(C3CC3)on2)C[C@@H]1C)C1CCNCC1 [compound 360, 5-cyclopropyl-N-((2S,4S)-2-methyl-1-((S)-2-(piperidin-4-yl)propanoyl)piperidin-4-yl)isoxazole-3-carboxamide] |
| 1.36 | 13.6 | C[C@@H](C(=O)N1CC[C@H](NC(=O)c2cc(C3CC3)on2)C[C@@H]1C)C1CCNCC1 [compound 361, 5-cyclopropyl-N-((2S,4S)-2-methyl-1-((R)-2-(piperidin-4-yl)propanoyl)piperidin-4-yl)isoxazole-3-carboxamide] |
| 0.454 | 3.88 | C[C@@H]1C[C@H](NC(=O)c2cc(C3CC3)on2)CCN1C(=O)c1cccc(C(C)(C)N)c1 [compound 365, N-((2R,4R)-1-(3-(2-aminopropan-2-yl)benzoyl)-2-methylpiperidin-4-yl)-5-cyclopropylisoxazole-3-carboxamide] |
| 4.29 | 30.6 | C[C@H]1C[C@@H](NC(=O)c2cc(C3CC3)on2)CCN1C(=O)c1cccc(C(C)(C)N)c1 [compound 367, N-((2S,4S)-1-(3-(2-aminopropan-2-yl)benzoyl)-2-methylpiperidin-4-yl)-5-cyclopropylisoxazole-3-carboxamide] |
| 0.122 | 1.04 | C[C@@H]1C[C@H](NC(=O)c2cc(C3CC3)on2)CCN1C(=O)c1ccc(C(C)(C)N)cc1 [compound 368, N-((2R,4R)-1-(4-(2-aminopropan-2-yl)benzoyl)-2-methylpiperidin-4-yl)-5-cyclopropylisoxazole-3-carboxamide] |
| 4.39 | > 40 | C[C@H]1C[C@@H](NC(=O)c2cc(C3CC3)on2)CCN1C(=O)c1ccc(C(C)(C)N)cc1 [compound 370, N-((2S,4S)-1-(4-(2-aminopropan-2-yl)benzoyl)-2-methylpiperidin-4-yl)-5-cyclopropylisoxazole-3-carboxamide] |

Continued, compound first:

| SMILES | IC50 (SMYD3 [1]) [µM] | IC50 (SMYD3 [2]) [µM] |
| --- | --- | --- |
| C[C@@H]1C[C@H](NC(=O)c2cc(C3CC3)on2)CCN1S(=O)(=O)c1cn(C)cn1 [compound 294, 5-cyclopropyl-N-((2R,4R)-2-methyl-1-((1-methyl-1H-imidazol-4-yl)sulfonyl)piperidin-4-yl)isoxazole-3-carboxamide] | > 10 | > 40 |
| C[C@@H]1C[C@H](NC(=O)c2cc(C3CC3)on2)CCN1S(=O)(=O)CCc1ccccc1 [compound 295, 5-cyclopropyl-N-((2R,4R)-2-methyl-1-(phenethylsulfonyl)piperidin-4-yl)isoxazole-3-carboxamide] | > 10 | > 40 |
| N[C@H]1CC[C@H](C(=O)N2CC[C@@H](NC(=O)c3cc(C4CC4)on3)C[C@H]2Cc2ccccc2)CC1 [compound 309, N-((2R,4R)-1-((1r,4R)-4-aminocyclohexane-1-carbonyl)-2-benzylpiperidin-4-yl)-5-cyclopropylisoxazole-3-carboxamide] | 1.18 | 16.8 |
| N[C@H]1CC[C@H](C(=O)N2CC[C@H](NC(=O)c3cc(C4CC4)on3)C[C@@H]2Cc2ccccc2)CC1 [compound 310, N-((2S,4S)-1-((1r,4S)-4-aminocyclohexane-1-carbonyl)-2-benzylpiperidin-4-yl)-5-cyclopropylisoxazole-3-carboxamide] | 0.733 | 8.1 |
| C[C@@H]1C[C@H](NC(=O)c2cc(C3CC3)on2)CCN1C(=O)CC(CN)c1ccccc1 (stereo partly drawn) [compound 314, N-((2R,4R)-1-(4-amino-3-phenylbutanoyl)-2-methylpiperidin-4-yl)-5-cyclopropylisoxazole-3-carboxamide] | 4.73 | > 40 |
| C[C@H]1C[C@@H](NC(=O)c2cc(C3CC3)on2)CCN1S(=O)(=O)N(C)C [compound 315, 5-cyclopropyl-N-((2S,4S)-1-(N,N-dimethylsulfamoyl)-2-methylpiperidin-4-yl)isoxazole-3-carboxamide] | 1.33 | 4.84 |
| CCCCS(=O)(=O)N1CC[C@H](NC(=O)c2cc(C3CC3)on2)C[C@@H]1C [compound 316, N-((2S,4S)-1-(butylsulfonyl)-2-methylpiperidin-4-yl)-5-cyclopropylisoxazole-3-carboxamide] | 0.237 | 0.782 |
| C[C@H]1C[C@@H](NC(=O)c2cc(C3CC3)on2)CCN1S(=O)(=O)c1cccnc1 [compound 317, 5-cyclopropyl-N-((2S,4S)-2-methyl-1-(pyridin-3-ylsulfonyl)piperidin-4-yl)isoxazole-3-carboxamide] | 0.686 | 4.11 |
| C[C@H]1C[C@@H](NC(=O)c2cc(C3CC3)on2)CCN1S(=O)(=O)Cc1cccnc1 [compound 319, 5-cyclopropyl-N-((2S,4S)-2-methyl-1-((pyridin-3-ylmethyl)sulfonyl)piperidin-4-yl)isoxazole-3-carboxamide] | 1.43 | 4.53 |
| C[C@@H]1C[C@H](NC(=O)c2cc(C3CC3)on2)CCN1S(=O)(=O)N(C)C [compound 328, 5-cyclopropyl-N-((2R,4R)-1-(N,N-dimethylsulfamoyl)-2-methylpiperidin-4-yl)isoxazole-3-carboxamide] | 6.91 | 15.2 |
| C[C@@H]1C[C@H](NC(=O)c2cc(C3CC3)on2)CCN1S(=O)(=O)Cc1cccnc1 [compound 329, 5-cyclopropyl-N-((2R,4R)-2-methyl-1-((pyridin-3-ylmethyl)sulfonyl)piperidin-4-yl)isoxazole-3-carboxamide] | 6.42 | 20 |
| CC(=O)Nc1ccc(S(=O)(=O)N2CC[C@@H](NC(=O)c3cc(C4CC4)on3)C[C@H]2C)cc1 [compound 330, N-((2R,4R)-1-((4-acetamidophenyl)sulfonyl)-2-methylpiperidin-4-yl)-5-cyclopropylisoxazole-3-carboxamide] | > 10 | 29.3 |
| CCOC(=O)C1CN(S(=O)(=O)CCCN)CCC1NC(=O)c1cc(C2CC2)on1 (stereo not drawn) [compound 331, ethyl 1-((3-aminopropyl)sulfonyl)-4-(5-cyclopropylisoxazole-3-carboxamido)piperidine-3-carboxylate] | 0.147 | 2.31 |
| NCCCC(=O)N1CC[C@@H](NC(=O)c2cc(C3CC3)on2)C[C@H]1Cc1ccccc1 [compound 333, N-((2R,4R)-1-(4-aminobutanoyl)-2-benzylpiperidin-4-yl)-5-cyclopropylisoxazole-3-carboxamide] | > 10 | > 40 |
| NCCCC(=O)N1CC[C@@H](NC(=O)c2cc(C3CC3)on2)C[C@@H]1Cc1ccccc1 [compound 334, N-((2S,4R)-1-(4-aminobutanoyl)-2-benzylpiperidin-4-yl)-5-cyclopropylisoxazole-3-carboxamide] | 1.9 | 33 |
| NCCCC(=O)N1CC[C@H](NC(=O)c2cc(C3CC3)on2)C[C@H]1Cc1ccccc1 [compound 335, N-((2R,4S)-1-(4-aminobutanoyl)-2-benzylpiperidin-4-yl)-5-cyclopropylisoxazole-3-carboxamide] | 1.12 | 19.6 |
| NCCCC(=O)N1CC[C@H](NC(=O)c2cc(C3CC3)on2)C[C@@H]1Cc1ccccc1 [compound 336, N-((2S,4S)-1-(4-aminobutanoyl)-2-benzylpiperidin-4-yl)-5-cyclopropylisoxazole-3-carboxamide] | 0.0541 | 1.62 |

Reference: patent US10577363B2, “Substituted piperidine compounds” (EPIZYME, INC., priority 2014, dated 2020)
